Literature values in patent US20250170128A1, “Obicetrapib and SGLT2 Inhibitor Combination” (NE[…] B.V. (Dutch Chamber of Commerce No. 5597 1946), priority 2021, published 2025).

Key:
[1] = clinical studies
CETP = target: T1, CETP (Homo sapiens, UniProt P11597); settings: repeated daily dosages (once a day) as low as 2.5 mg
T1 construct: CETP is a plasma protein secreted primarily by liver and adipose tissue
T1 sequence (P11597 18-493): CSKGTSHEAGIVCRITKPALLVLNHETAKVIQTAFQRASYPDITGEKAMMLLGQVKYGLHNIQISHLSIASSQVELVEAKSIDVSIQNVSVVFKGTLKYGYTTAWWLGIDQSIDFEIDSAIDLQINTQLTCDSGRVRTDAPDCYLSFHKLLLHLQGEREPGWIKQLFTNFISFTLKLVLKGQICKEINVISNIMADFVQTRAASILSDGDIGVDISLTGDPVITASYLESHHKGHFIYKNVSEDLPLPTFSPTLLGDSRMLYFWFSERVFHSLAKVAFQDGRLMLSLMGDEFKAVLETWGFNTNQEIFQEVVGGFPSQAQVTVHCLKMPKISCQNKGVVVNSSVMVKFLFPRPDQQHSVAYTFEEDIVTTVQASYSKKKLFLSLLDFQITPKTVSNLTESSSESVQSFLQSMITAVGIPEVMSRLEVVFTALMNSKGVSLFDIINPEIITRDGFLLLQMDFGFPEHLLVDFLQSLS

## CCOC(=O)N1c2ccc(C(F)(F)F)cc2[C@@H](N(Cc2cc(C(F)(F)F)cc(C(F)(F)F)c2)c2ncc(OCCCC(=O)O)cn2)C[C@H]1CC [compound of Formula (I), (2R,4S)-4-{[3,5-bis(trifluoromethyl)benzyl]-[5-(3-carboxypropoxy)pyrimidin-2-yl]amino}-2-ethyl-6-trifluoromethyl-3,4-dihydro-2H-quinoline-1-carboxylic acid ethyl ester]
[1]
  serious side effects: does not lead to serious side effects
  tolerability: well tolerated
CETP
  CETP inhibition: near complete CETP-inhibition
